Results reported in US11793782B2, “Therapeutic agents for neurodegenerative diseases” (priority 2017, dated 2023).

How the values were obtained:
[1] = system: Hexb−/− mouse (Sandhoff disease model); assay: Lifespan of Sandhoff mouse; assay type: in vivo
Protocol: This study made use of a mouse model of Sandhoff disease, the Hexb^−/− mouse, as descrbed in Jeyakumar et al. (Jeyakumar, M. et al. (1999) Proc. Natl. Acad. Sci. USA 96: 6388-6393).
In FIG. 7A, acetyl-leucine-treated mice were treated with 0.1 g/kg acetyl-leucine from 3 weeks of age. The asterisks (*) indicates a p-value of <0.05 vs untreated Sandhoff mice. Data is average of n=6 mice per group. Without treatment, the median survival time of Sandhoff mice was 112 days. Treatment with acetyl-leucine (0.1 g/kg body weight since 3 weeks of age) increased the median lifespan to 120 days.

MSA-C patients = assay: Case studies, multisystemic atrophy cerebellar type (MSA-C) patients; assay type: in vivo, human
[2] = system: Tay-Sachs disease patients; assay: Case studies, Tay-Sachs disease patients (SARA, SCAFI, MoCA); assay type: in vivo, human
Text: For example, to evaluate overall neurological status, mDRS, a four-domain scale (ambulation, manipulation, language and swallowing), may be applied. Cerebellar function may be evaluated using SARA, an eight-item clinical rating scale (gait, stance, sitting, speech, fine motor function and taxis; range 0-40, where 0 is the best neurological status and 40 the worst), and SCAFI, comprising the 8-m-Walking-Time (8 MW; performed by having patients walking twice as quickly as possible from one line to another excluding turning), 9-Hole-Peg-Test (9HPT) and the number of “PATA” repetitions over 10 s. Subjective impairment and quality of life may be evaluated using the EQ-5D-5L questionnaire and VAS. To assess ocular motor function, 3-dimensional videooculography (EyeSeeCam) may be used to measure the peak velocity of saccades, gain of smooth pursuit, peak slow phase velocity of gaze-evoked nystagmus (gaze-holding function), peak slow phase velocity of optokinetic nystagmus, and gain of horizontal vestibulo-ocular reflex. To evaluate the cognitive state, WAIS-R or WISC-IV, and MoCA, assessing different cognitive domains, including attention and concentration, executive functions, memory, language, visuoconstructional skills, conceptual thinking, calculations, and orientation with a maximum of 30 points and a cut-off score of 26, may be used. The skilled person will know how to perform these and other such tests.
Before treatment was commenced, examination of the patient indicated a Scale for Assessment and Rating of Ataxia (SARA) score of 15.5/40. In addition, results from the patient's Spinocerebellar Ataxia Functional Index (SCAFI) analysis were: • Mean 8-meters Walking Test (8 MW): 21.6 s • MW 9-Hole Pegboard Test Dominant (9HPTD) (right): 48.3 s • MW 9-Hole Pegboard Test Non-Dominant (9HPTND): 44.9 s • MW PATA Word Test: 20 • Montreal Cognitive Assessment (MoCA): 18/30
The day following this examination, the patient was started on therapy with acetyl-leucine, at a dose of 3 g per day for the first week, followed by a dose of 5 g per day for the second week onwards.
The day of the examination, the patient was started on therapy with acetyl-leucine at a dose of 3 g per day for the first week, followed by a dose of 5 g per day for the second week onwards.
The patient was started on therapy with acetyl-leucine at a dose of 1.5 g per day for the first week, followed by a dose of 3 g per day for the second week onwards.

MSA-P patients = assay: Case studies, multiple system atrophy Parkinson type (MSA-P) patients; assay type: in vivo, human; conditions: MSA-P Patient 1; 6 weeks later
[3] = system: ataxia with oculomotor apraxia type 4 patients; assay: Case study, ataxia with oculomotor apraxia type 4; assay type: in vivo, human; conditions: AOA4 youngest sibling; on treatment
Text: In this case study, four patients (male siblings) suffered from, and were later diagnosed with, ataxia with oculomotor apraxia type 4. The older three siblings […], at the time of disease onset. […] The older siblings began treatment with acetyl-leucine […], respectively, and have been on the treatment for approximately four years. No long-term clinical data is available for these three patients.
The youngest sibling was […] at the time of onset. […] No long-term clinical data is available for the youngest sibling.

[4] = MSA-C Patient 3, after 20 days of re-suspending treatment
[5] = MSA-C Patient 3, after 27 days of treatment
[6] = MSA-C Patient 3, shortly after commencing treatment

CC(=O)NC(CC(C)C)C(=O)O (racemic) [acetyl-DL-leucine]
Median lifespan ([1]; Sandhoff mice, 0.1 g/kg body weight since 3 weeks of age, untreated 112 days): 120 days
Lifespan ([1]; Sandhoff mouse, 0.1 g/kg from 3 weeks of age, p<0.05 vs untreated): statistically significant increase in the lifespan
Speech (MSA-C patients; MSA-C Patient 1, 5 g per day, after one week): significant improvement in speech
Falls (MSA-C patients; MSA-C Patient 2, after 3 weeks, before approximately 10 falls a month): falls completely stopped
Symptoms after stopping medication (MSA-C patients; MSA-C Patient 2, one week after stopping): deterioration of gait and dizziness
Symptoms after stopping medication again (MSA-C patients; MSA-C Patient 2, two days after stopping, following a further 40 days of treatment): progressive deterioration of gait and dizziness
Gait (MSA-C patients; MSA-C Patient 2, up to 5 gram per day, after 3 weeks): significant improvement of gait
speed (MSA-C patients; MSA-C Patient 3, 5 gram per day, after 27 days of treatment): 106 cm/s
Coefficient of variation (temporal) (MSA-C patients; [4]): 2.5
Double stance (MSA-C patients; [4]): 27.1%
Functional Gait Assessment (MSA-C patients; [4]): 22/30
Max. speed (MSA-C patients; [4]): 197 cm/s
Step cycle length (MSA-C patients; [4]): 115 cm
Track width (MSA-C patients; [4]): 17.5 cm
cadence (MSA-C patients; [4]): 112 steps/minute
speed (MSA-C patients; [4]): 106 cm/s
Coefficient of variation (temporal) (MSA-C patients; [5]): 3.1
Double stance (MSA-C patients; [5]): 27.3%
Functional Gait Assessment (MSA-C patients; [5]): 20/30
Max. speed (MSA-C patients; [5]): 208 cm/s
Step cycle length (MSA-C patients; [5]): 113 cm
Track width (MSA-C patients; [5]): 14.6 cm
cadence (MSA-C patients; [5]): 113 steps/minute
Gait analysis (summary) (MSA-C patients; MSA-C Patient 3, after one month of treatment): improvement of gait speed, and reductions of track width and gait fluctuations
Symptoms after stopping medication (MSA-C patients; MSA-C Patient 3, approximately two to three weeks after stopping): progressive deterioration of gait and dizziness
Coefficient of variation (temporal) (MSA-C patients; [6]): 3.3
Double stance (MSA-C patients; [6]): 32.5%
Functional Gait Assessment (MSA-C patients; [6]): 21/30
Max. speed (MSA-C patients; [6]): 183 cm/s
Step cycle length (MSA-C patients; [6]): 87 cm
Track width (MSA-C patients; [6]): 16.8 cm
cadence (MSA-C patients; [6]): 101 steps/minute
speed (MSA-C patients; [6]): 72 cm/s
Overall symptoms ([2]; Tay-Sachs Patient 1): improvement in symptoms
SARA ([2]; Tay-Sachs Patient 1, 5 g per day, after 4 months, baseline 15.5/40): 17/40
MoCA ([2]; Tay-Sachs Patient 1, after 4 months, baseline 18/30): 22/30
PATA ([2]; Tay-Sachs Patient 1, after 4 months, baseline 20): 21
8MWT ([2]; Tay-Sachs Patient 1, after 4 months, baseline 21.6 sec): 25.49 s
9HPTND ([2]; Tay-Sachs Patient 1, after 4 months, baseline 44.9 sec): 47.09 s
9HPTD ([2]; Tay-Sachs Patient 1, after 4 months, baseline 48.3 sec): 48.67 s
Clinical observation ([2]; Tay-Sachs Patient 1, after four months): stable condition with slightly improved cognitive function but had deterioration of stance, gait and fine motor function
Clinical observation ([2]; Tay-Sachs Patient 1, after one month): improved fine motor skills and reduced hand tremor
MoCA ([2]; Tay-Sachs Patient 1, after one month, baseline 18/30): 21/30
PATA ([2]; Tay-Sachs Patient 1, after one month, baseline 20): 22
8MWT ([2]; Tay-Sachs Patient 1, after one month, baseline 21.6 sec): 7 s
9HPTND ([2]; Tay-Sachs Patient 1, after one month, baseline 44.9 sec): 40.1 s
9HPTD ([2]; Tay-Sachs Patient 1, after one month, baseline 48.3 sec): 45.9 s
SARA ([2]; Tay-Sachs Patient 2, 5 g per day, after one month, baseline 10.5/40): 5/40
Clinical observation ([2]; Tay-Sachs Patient 2, after one month): increased enunciation, improved postural stability, and enhanced cognitive function
8MWT ([2]; Tay-Sachs Patient 2, after one month, baseline 12.5 sec): 9.55 s
PATA ([2]; Tay-Sachs Patient 2, after one month, baseline 18): 17
MoCA ([2]; Tay-Sachs Patient 2, after one month, baseline 21/30): 25/30
9HPTD ([2]; Tay-Sachs Patient 2, after one month, baseline 21.5 sec): 34.97 s
9HPTND ([2]; Tay-Sachs Patient 2, after one month, baseline 35.5 sec): 39.34 s
SARA ([2]; Tay-Sachs Patient 3, 3 g per day, after one month, baseline 36/40): 33/40
Clinical observation ([2]; Tay-Sachs Patient 3, after one month): increased fine motor skills
mRDS ([2]; Tay-Sachs Patient 3, after one month, baseline 18/24): 16/24
EQ-5D-5L visual scale ([2]; Tay-Sachs Patient 3, after one month, baseline 50): 60
8MWT ([2]; Tay-Sachs Patient 3, after one month, with support of one arm, baseline 18.1 (only with strong support)): 11.75 (with support
Symptoms after stopping medication (MSA-P patients): did not report deterioration of symptoms
Mother's report compared to older siblings at each age [3]: improved fine motor skills and improved speech
